According to ChEMBL document CHEMBL3044939, “Insect antifeedant and growth regulating activities of quassinoids from Samadera indica” (2001):

Key:
Type in all cases: functional
Spodoptera litura [1] = assay: Antifeedant activity against Spodoptera litura at 5 ug/cm'2 of castor leaf area relative to control
Spodoptera litura [2] = assay: Growth regulating activity of Spodoptera litura assessed as sixth-instar time at 0.5 ug/cm'2 of castor leaf area after 24 hr
Spodoptera litura [3] = assay: Insecticidal activity against Spodoptera litura assessed as pupal mortality at 0.5 ug/cm'2 of castor leaf area after 24 hr
Spodoptera litura [4] = assay: Growth regulating activity of Spodoptera litura assessed as third-instar time at 0.5 ug/cm'2 of castor leaf area after 24 hr
Spodoptera litura [5] = assay: Growth regulating activity of Spodoptera litura assessed as fifth-instar time at 0.5 ug/cm'2 of castor leaf area after 24 hr
Spodoptera litura [6] = assay: Growth regulating activity of Spodoptera litura assessed as fourth-instar time at 0.5 ug/cm'2 of castor leaf area after 24 hr
Spodoptera litura [7] = assay: Growth regulating activity of Spodoptera litura assessed as total larval time at 0.5 ug/cm'2 of castor leaf area after 24 hr
Spodoptera litura [8] = assay: Antifeedant activity against Spodoptera litura at 1 ug/cm'2 of castor leaf area relative to control
Spodoptera litura [9] = assay: Antifeedant activity against Spodoptera litura at 0.5 ug/cm'2 of castor leaf area relative to control
Spodoptera litura [10] = assay: Growth regulating activity of Spodoptera litura assessed as pupal time at 0.5 ug/cm'2 of castor leaf area after 24 hr

SMILES | Activity (Spodoptera litura [1]) [%] | Time (Spodoptera litura [2]) [days] | Activity (Spodoptera litura [3]) [%] | Time (Spodoptera litura [4]) [days] | Time (Spodoptera litura [5]) [days] | Time (Spodoptera litura [6]) [days] | Time (Spodoptera litura [7]) [days] | Activity (Spodoptera litura [8]) [%] | Activity (Spodoptera litura [9]) [%] | Time (Spodoptera litura [10]) [days]
CC1=CC(=O)[C@@H](O)[C@@]2(C)[C@H]1CC(=O)[C@@]13CO[C@]4(C)[C@@H](OC(=O)[C@@H]41)[C@H](O)[C@@H]32 [SAMADERINS B] | 63.1 | 5.1 | 37.5 | 3.1 | 3.4 | 3.8 | 15.6 | 25.9 | 16.3 | 9.3
CC1=C[C@H](O)[C@@H](O)[C@@]2(C)[C@H]1CC(=O)[C@@]13CO[C@]4(C)[C@@H](OC(=O)[C@@H]41)[C@H](O)[C@@H]32 [SAMADERINS C] | 55.3 | 4.4 | 54.1 | 2.7 | 3.8 | 4.4 | 15.3 | 16.1 | 15 | 9.7
C/C=C(\C)C(=O)O[C@H]1C[C@@H](OC(C)=O)[C@@]2(C(=O)OC)CO[C@H]3[C@@H](O)[C@@](C)([C@]45O[C@@]4(C)[C@@H]4C[C@H]5O[C@@H]5OC=C[C@@]54O)[C@H]4[C@]1(CO[C@]4(O)C(=O)OC)[C@@H]32 [AZADIRACHTIN A] | 95.4 | 5.4 | 62.5 | 3.2 | 3.3 | 4.1 | 16.1 | 94.8 | 91.6 | 9.3
CC1=CC(=O)[C@@H](O)[C@@]2(C)[C@H]1[C@@H](O)[C@H]1OC(=O)C[C@]3(O)[C@]14CO[C@@]3(C)[C@@H](O)[C@H](O)[C@H]24 [INDAQUASSIN C] | 62.5 | 4.9 | 10.5 | 2.3 | 3.4 | 3.8 | 14.2 | 48.9 | 47.6 | 8.5
CC1=CC(=O)[C@@]2(C)C1=CC(=O)[C@@]13CO[C@]4(C)[C@@H](OC(=O)[C@@H]41)[C@H](O)[C@H]23 [SAMADERINS A] | 21.1 | 4.8 | 7.4 | 2.9 | 3.6 | 3.6 | 15.1 | 16.2 | 18.9 | 8.8
